In US20210269451A1, “PYRIDINYL HETEROCYCLYL COMPOUNDS FOR THE TREATMENT OF AUTOIMMUNE DISEASE” (Hoffmann-La Roche Inc., priority 2018, published 2021):

Tests used:
[1] = target: T1, hTLR9 (Homo sapiens, UniProt Q9NR96); test: HEK293-Blue-hTLR-9 cells assay; type: cell-based; parameters: host or cells: HEK293-Blue-hTLR-9 (HEK293); details: HEK293-Blue-hTLR9 cells, ODN2006 stimulation, 20 hrs, SEAP reporter; read-out: HEK/hTLR9 IC50
T1 sequence (Q9NR96 26-1032): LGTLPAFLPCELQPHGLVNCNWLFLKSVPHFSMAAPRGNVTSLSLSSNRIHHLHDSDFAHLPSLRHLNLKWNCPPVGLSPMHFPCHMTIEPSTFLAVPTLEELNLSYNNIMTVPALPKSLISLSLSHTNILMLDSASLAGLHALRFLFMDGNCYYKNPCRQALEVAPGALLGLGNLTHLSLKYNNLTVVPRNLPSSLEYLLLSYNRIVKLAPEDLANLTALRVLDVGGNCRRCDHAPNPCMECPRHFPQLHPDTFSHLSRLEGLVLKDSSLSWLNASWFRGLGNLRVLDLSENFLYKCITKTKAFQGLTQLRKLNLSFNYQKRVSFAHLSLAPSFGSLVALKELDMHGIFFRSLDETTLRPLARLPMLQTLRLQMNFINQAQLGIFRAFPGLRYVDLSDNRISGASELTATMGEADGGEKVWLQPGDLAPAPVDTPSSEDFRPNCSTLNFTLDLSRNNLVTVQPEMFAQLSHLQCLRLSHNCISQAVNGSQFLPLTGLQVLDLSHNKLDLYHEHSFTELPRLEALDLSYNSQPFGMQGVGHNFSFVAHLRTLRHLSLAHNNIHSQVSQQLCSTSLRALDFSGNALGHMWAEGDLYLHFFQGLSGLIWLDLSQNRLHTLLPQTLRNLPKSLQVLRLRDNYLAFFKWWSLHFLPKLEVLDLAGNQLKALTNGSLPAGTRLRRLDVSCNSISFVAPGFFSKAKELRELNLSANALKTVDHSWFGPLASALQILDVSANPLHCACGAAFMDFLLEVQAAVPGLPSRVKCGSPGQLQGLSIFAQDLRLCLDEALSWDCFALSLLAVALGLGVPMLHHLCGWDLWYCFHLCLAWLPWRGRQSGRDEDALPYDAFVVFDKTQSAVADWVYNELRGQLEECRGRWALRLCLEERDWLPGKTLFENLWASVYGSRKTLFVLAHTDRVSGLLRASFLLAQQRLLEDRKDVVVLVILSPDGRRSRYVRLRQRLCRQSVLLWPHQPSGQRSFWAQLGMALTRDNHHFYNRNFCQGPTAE
Protocol: The following tests were carried out in order to determine the activity of the compounds of formula (I) and (Ia) in HEK293-Blue-hTLR-7/8/9 cells assay.
HEK293-Blue-hTLR-9 cells assay:
A stable HEK293-Blue-hTLR-9 cell line was purchased from InvivoGen (Cat. #: hkb-htlr9, San Diego, Calif., USA). These cells were originally designed for studying the stimulation of human TLR9 by monitoring the activation of NE-KB. A SEAP (secreted embryonic alkaline phosphatase) reporter gene was placed under the control of the IFN-β minimal promoter fused to five NE-κB and AP-1-binding sites. The SEAP was induced by activating NE-κB and AP-1 via stimulating HEK-Blue hTLR9 cells with TLR9 ligands. Therefore the reporter expression was declined by TLR9 antagonist under the stimulation of a ligand, such as ODN2006 (Cat. #: tlrl-2006-1, Invivogen, San Diego, Calif., USA), for incubation of 20 hrs. The cell culture supernatant SEAP reporter activity was determined using QUANTI-Blue™ kit (Cat. #: rep-qb1, Invivogen, San Diego, Calif., USA) at a wavelength of 640 nm, a detection medium that turns purple or blue in the presence of alkaline phosphatase.
HEK293-Blue-hTLR9 cells were incubated at a density of 250,000˜450,000 cells/mL in a volume of 170 μL in a 96-well plate in Dulbecco's Modified Eagle's medium (DMEM) containing 4.5 g/L glucose, 50 U/mL penicillin, […], […], 2 mM L-glutamine, 10% (v/v) heat-inactivated fetal bovine serum with addition of 20 μL test compound in a serial dilution in the presence of final DMSO at 1% and 10 μL of 20 uM ODN2006 in above DMEM, perform incubation under 37° C. in a CO2 incubator for 20 hrs. Then 20 μL of the supernatant from each well was incubated with 180 μL Quanti-blue substrate solution at 37° C. for 2 h and the absorbance was read at 620˜655 nm using a spectrophotometer. The signaling pathway that TLR9 activation leads to downstream NE-κB activation has been widely accepted, and therefore similar reporter assay was modified for evaluating TLR9 antagonist.

[2] = target: T2, CYP2D6 (Homo sapiens, UniProt P10635); test: CYP inhibition assay in human liver microsome; type: in vitro ADME; details: human liver microsomes, probe dextromethorphan, dextromethorphan substrate, percentage inhibition <0: not or weak inhibitor, read-out: CYP 2D6 inhibition %@10 μM
T2 construct: tissue BD-Gentest 452117; host or cells: human liver microsomes
T2 sequence (P10635 whole entry): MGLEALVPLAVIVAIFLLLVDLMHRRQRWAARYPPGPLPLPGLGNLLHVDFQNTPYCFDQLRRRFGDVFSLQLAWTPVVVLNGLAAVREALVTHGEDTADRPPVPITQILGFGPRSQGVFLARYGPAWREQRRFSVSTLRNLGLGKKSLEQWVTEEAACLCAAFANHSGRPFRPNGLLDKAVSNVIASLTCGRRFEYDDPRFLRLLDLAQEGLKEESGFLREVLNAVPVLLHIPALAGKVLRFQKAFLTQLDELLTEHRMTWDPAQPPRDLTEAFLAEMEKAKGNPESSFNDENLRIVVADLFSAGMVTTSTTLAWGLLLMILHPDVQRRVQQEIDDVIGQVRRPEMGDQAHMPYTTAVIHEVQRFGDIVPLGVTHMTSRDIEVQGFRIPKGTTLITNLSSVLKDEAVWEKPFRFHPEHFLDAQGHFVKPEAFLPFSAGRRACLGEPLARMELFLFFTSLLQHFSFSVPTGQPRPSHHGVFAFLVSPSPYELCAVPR
Protocol: The compounds would be desirable to have minimal DDI liabilities. Therefore, the effects of compounds of formula (I) or (Ia) on CYP2D6 are determined.
This is a high throughput screening assay used for assessment of reversible inhibition of CYP2D6 activity of test compounds in human liver microsome (HLM) in early discovery stage.
10 mM DMSO stock solutions of test compounds were diluted in DMSO to generate 2 mM intermediate stock solution. 250 nL of intermediate stock solution were transferred in duplicate into 3 separate 384 well microtitre plates (assay-ready plates). A mixture of HLM and each substrate was made up. 45 μL of HLM substrate mix was then transferred to each well of an assay ready plate and mixed. The negative (solvent) and positive control (standard inhibitor for CYP 2D6) were included in each assay ready plate. The assay ready plate was warmed to 37° C. in an incubator over 10 minutes. 5 μL pre-warmed NADPH regenerating system was added to each incubation well to start the reaction. Final incubation volume was 50 μL. The assay plate then was placed back in the 37° C. incubator. After 10 minutes incubation, incubates were quenched by addition of 50 μL 100% acetonitrile containing internal standards (20 ng/mL D3-Dextrorphan). The supernatants were collected for RapidFire/MS/MS analysis.
RapidFire online solid phase extraction/sample injection system (Agilent) coupled with API4000 triple quadrupole mass spectrometer (AB Sciex) were used for sample analysis. The mobile phase composed of acetonitrile and water supplemented with 0.1% formic acid. A C4 solid phase extraction cartridge is used for sample separation. MS detection is achieved in positive ion MRM mode.
Data analysis Peak areas for substrate, metabolite and internal standard are determined using the RapidFire integrator software (version 3.6.12009.12296). Peak area ratios (PAR) of metabolite and internal standard (stable-labelled metabolite) are then calculated. The measurement window for each experiment is then defined:
PAR (0% activity), average PAR for all incubations containing concentrated inhibitor; Par (100% activity), average PAR for all incubations containing no inhibitor (DMSO controls);
% Activity (test inhibitor)=
=[PAR(test inhibitor)-PAR(0% activity)]/[PAR(100% activity)-PAR(0% activity)];
% Inhibition (test inhibitor)=100-% Activity (test inhibitor).

| IC50 [1] | inhibition at 10 min, 10 μM [2] | SMILES |
| --- | --- | --- |
| < 0.032 µM | 19% | Cc1cc(N2CCOC3(CN(C[C@H]4CN(c5ccc(C#N)c6ncccc56)C[C@@H](C)O4)C3)C2)cc(C)n1 [Example 14] |
| < 0.032 µM | -0.5% | CNc1cc(N2CCN(C[C@H]3CN(c4ccc(C#N)c5ncccc45)C[C@@H](C)O3)CC2)cc(C)n1 [Example 42, 5-[(2R,6S)-2-methyl-6-[[4-[2-methyl-6-(methylamino)-4-pyridyl]piperazin-1-yl]methyl]morpholin-4-yl]quinoline-8-carbonitrile] |
| 0.122 µM |  | Cc1cc(N2CC[C@H](F)[C@H](NC[C@H]3CN(c4ccc(C#N)c5ncccc45)C[C@@H](C)O3)C2)cc(CO)n1 [Example 33] |
| 0.148 µM |  | C[C@@H]1CN(c2ccc(C#N)c3ncccc23)C[C@H](CN2CC3(C2)CN(c2ccnc(C(C)(C)O)c2)C3)O1 [Example 48, 5-[(2S,6R)-2[[2-[2-(1-hydroxy-1-methyl-ethyl)-4-pyridyl]-2,6-diazaspiro[3.3]heptan-6-yl]methyl]-6-methyl-morpholin-4-yl]quinoline-8-carbonitrile] |
| 0.145 µM |  | Cc1cc(N2CCN(C[C@H]3CN(c4ccc(C#N)c5ncccc45)C[C@@H](C)O3)[C@H](C)C2)cc(CO)n1 [Example 4B] |
| 0.059 µM |  | Cc1cc(N2CC[C@H](NC[C@H]3CN(c4ccc(C#N)c5ncccc45)C[C@@H](C)O3)C2)cc(CO)n1 [Example 29] |
| 0.16 µM |  | Cc1cc(N2CC(N(C)C[C@H]3CN(c4ccc(C#N)c5ncccc45)C[C@@H](C)O3)C2)cc(CO)n1 [Example 37] |
| 0.057 µM |  | Cc1cc(N2CC[C@@H](NC[C@H]3CN(c4ccc(C#N)c5ncccc45)C[C@@H](C)O3)C2)cc(CO)n1 [Example 28] |
| 0.036 µM |  | C[C@@H]1CN(c2ccc(C#N)c3ncccc23)C[C@H](CNC2CCN(c3ccnc(N)c3)CC2)O1 [Example 20, 5-[(2S,6R)-2-[[[1-(2-amino-4-pyridyl)-4-piperidyl]amino]methyl]-6-methyl-morpholin-4-yl]quinoline-8-carbonitrile] |

More lines, now with the values behind:

| SMILES | IC50 [1] | inhibition at 10 min, 10 μM [2] |
| --- | --- | --- |
| Cc1cc(N2CCC(NC[C@H]3CN(c4ccc(C#N)c5ncccc45)C[C@@H](C)O3)CC2)cc(CO)n1 [Example 23] | < 0.032 µM |  |
| C[C@@H]1CN(c2ccc(C#N)c3ncccc23)C[C@H](CN2CC3(C2)CN(c2ccnc(CO)c2)CCO3)O1 [Example 51] | 0.035 µM | -15.5% |
| Cc1cc(N2CCOC3(CN(C[C@H]4CN(c5ccc(C#N)c6ncccc56)C[C@@H](C)O4)C3)C2)ccn1 [Example 16] | 0.038 µM | 5% |
| Cc1cc(N2CCN(C[C@H]3CN(c4ccc(C#N)c5ncccc45)C[C@@H](C)O3)CC2)cc(CO)n1 [Example 50] | 0.134 µM | 10.5% |
| Cc1cc(N2CCC23CN(C[C@H]2CN(c4ccc(C#N)c5ncccc45)C[C@@H](C)O2)C3)cc(C)n1 [Example 8] | < 0.032 µM |  |
| C[C@@H]1CN(c2ccc(C#N)c3ncccc23)C[C@H](CN[C@@H]2CCCN(c3ccnc(N)c3)C2)O1 [Example 21, 5-[(2S,6R)-2-[[[(3R)-1-(2-amino-4-pyridyl)-3-piperidyl]amino]methyl]-6-methyl-morpholin-4-yl]quinoline-8-carbonitrile] | < 0.032 µM | 2% |
| C[C@@H]1CN(c2ccc(C#N)c3ncccc23)C[C@H](CN2CCN(c3cc(N)nc(CO)c3)CC2)O1 [Example 45, 5-[(2S,6R)-2-[[4-[2-amino-6-(hydroxymethyl)-4-pyridyl]piperazin-1-yl]methyl]-6-methyl-morpholin-4-yl]quinoline-8-carbonitrile] | 0.091 µM | -2.5% |
| Cc1cc(N2CC(NC[C@H]3CN(c4ccc(C#N)c5ncccc45)C[C@@H](C)O3)C2)cc(CO)n1 [Example 30] | 0.088 µM | 8.5% |
| Cc1cc(N2CCC[C@H](NC[C@H]3CN(c4ccc(C#N)c5ncccc45)C[C@@H](C)O3)C2)cc(CO)n1 [Example 25] | < 0.032 µM | 8.5% |
| Cc1cc(N2CCOC3CN(CC4CN(c5ccc(C#N)c6ncccc56)CC(C)O4)CC32)cc(C)n1 (single isomer, unassigned) [Example 17A] | 0.154 µM |  |
| Cc1cc(N2CC[C@@H](F)[C@H](NC[C@H]3CN(c4ccc(C#N)c5ncccc45)C[C@@H](C)O3)C2)cc(CO)n1 [Example 34] | 0.155 µM |  |
| C[C@@H]1CN(c2ccc(C#N)c3ncccc23)C[C@H](CN2CC3(C2)CN(c2ccnc(C4CC4)c2)C3)O1 [Example 49, 5-[(2S,6R)-2[[2-(2-cyclopropyl-4-pyridyl)-2,6-diazaspiro[3.3]heptan-6-yl]methyl]-6-methyl-morpholin-4-yl]quinoline-8-carbonitrile] | 0.034 µM |  |
| Cc1cc(N2CCN(C[C@H]3CN(c4ccc(C#N)c5ncccc45)C[C@@H](C)O3)[C@@H](C)C2)cc(CO)n1 [Example 4A] | 0.148 µM |  |
| C[C@@H]1CN(c2ccc(C#N)c3ncccc23)C[C@H](CN2CCN(c3ccnc(N)c3)CC2)O1 [Example 19, 5-[(2S,6R)-2-[[4-(2-amino-4-pyridyl)piperazin-1-yl]methyl]-6-methyl-morpholin-4-yl]quinoline-8-carbonitrile] | 0.062 µM |  |
| Cc1cc(N2CC(NC[C@H]3CN(c4ccc(C#N)c5ncccc45)C[C@@H](C)O3)CC(F)(F)C2)cc(CO)n1 (stereo partly drawn) [Example 36] | 0.215 µM |  |
